Assay [1] addresses T1, Bromodomain-containing protein 4 (Homo sapiens, UniProt O60885). Briefly: Inhibition of His6-tagged human BRD4 bromodomain-1 (N44 to E168 residues) expressed in Escherichia coli BL21(DE3) using biotinylated-H4KAc4 as substrate by AlphaScreen assay.
Assay [2] concerns the target T1, Bromodomain-containing protein 4.
Description: Binding affinity to His6-tagged human BRD4 bromodomain-1 (N44 to E168 residues) expressed in Escherichia coli BL21(DE3) assessed as change in melting temperature at 200 uM by SYPRO orange dye based fluorescence assay
For a further assay, the system named is VCaP. As to the kind of experiment: Antiproliferative activity against human VCaP cells treated at 12 hrs post cell seeding measured at 72 to 144 hrs post cell seeding by Cell-Titer Glo assay. In kind it is functional, cell-based.
For the next assay, the system named is CWR22R. Briefly: Antiproliferative activity against human 22Rv1 cells treated at 12 hrs post cell seeding measured at 72 to 144 hrs post cell seeding by Cell-Titer Glo assay. In kind it is functional, cell-based.
In another assay the test system is LNCaP C4-2B. Briefly: Antiproliferative activity against human C4-2B cells treated at 12 hrs post cell seeding measured at 72 to 144 hrs post cell seeding by Cell-Titer Glo assay. The class given is functional, cell-based.
Assay [3] deals with LNCaP. Briefly: Antiproliferative activity against human LNCAP cells treated at 12 hrs post cell seeding measured at 72 to 144 hrs post cell seeding by Cell-Titer Glo assay. In kind it is functional, cell-based.
Assay [4] concerns LNCaP. As to the kind of experiment: Antiproliferative activity against human LNCAP cells. In kind it is functional, cell-based.

Where only a bound is given, the exact number is not on record here.

Consider `Cc1noc(C)c1-c1ccc2c(c1)OC(c1cc(Cl)cc(Cl)c1)C(=O)N2` (stereo not given), for which, in assay [1], the IC50 was determined as 1330 nM. Besides, the ΔTm in assay [2] turned out to be 6.3 °C.
For `Cc1noc(C)c1-c1ccc2c(c1)OC(CC1CCCCC1)C(=O)N2` (stereo not given), in that order: 1170 nM and 6.9 °C.
As for `Cc1noc(C)c1-c1ccc2c(c1)OC(CC1CC1)C(=O)N2` (stereo not given), the IC50 with VCaP turned out to be 410 nM; in assay [1], 400 nM; with CWR22R it was 1940 nM; in the assay with LNCaP C4-2B it was 590 nM; in the assay on LNCaP [3], 1030 nM. Also, in assay [2], the ΔTm stood at 8.7 °C.
Consider `Cc1noc(C)c1-c1ccc2c(c1)OC(c1ccc(Cl)c(Cl)c1)C(=O)N2` (stereo not given), for which, in assay [1], the IC50 turned out to be 4250 nM. The ΔTm in assay [2] came out at 5.7 °C.
For `Cc1noc(C)c1-c1ccc2c(c1)OC(c1ccccc1C(F)(F)F)C(=O)N2` (stereo not given), in that order: 1140 nM and 5.4 °C.
`Cc1noc(C)c1-c1ccc2c(c1)OC(c1cccc(C(F)(F)F)c1)C(=O)N2` (stereo not given) yielded an IC50 in assay [1] of 2270 nM. In addition, the ΔTm in assay [2] was 3.3 °C.
`Cc1noc(C)c1-c1ccc2c(c1)OC(C(C)C)C(=O)N2` (stereo not given) gave an IC50 in assay [1] of 1170 nM. In assay [2], the ΔTm amounted to 6.9 °C.
For `Cc1noc(C)c1-c1ccc2c(c1)OC(c1ccc(Cl)cc1)C(=O)N2` (stereo not given), in that order: 880 nM and 5.4 °C.
In the assay on LNCaP [4], `CCNC(=O)C[C@@H]1N=C(c2ccc(Cl)cc2)c2cc(OC)ccc2-n2c(C)nnc21` [MOLIBRESIB] gave an IC50 of 356 nM.
For the molecule `Cc1noc(C)c1-c1ccc2c(c1)O[C@H](CC1CC1)C(=O)N2CCN(C)C`, the half-maximal inhibitory concentration (IC50) in assay [1] was found to be 860 nM. Further, in assay [2], the ΔTm is 8.4 °C.
Consider `Cc1noc(C)c1-c1ccc2c(c1)O[C@H](CC1CC1)C(=O)N2CC(=O)O`, for which, in assay [1], the IC50 was 2120 nM. Also, in assay [2], the ΔTm was 6.9 °C.
The like results for `Cc1noc(C)c1-c1ccc2c(c1)OC(CC1CCCC1)C(=O)N2` (stereo not given) were, in that order, 290 nM and 7.8 °C.
For `Cc1noc(C)c1-c1ccc2c(c1)O[C@H](Cc1ccccc1)C(=O)N2`, in that order: 6070 nM and 3.2 °C.
For `Cc1noc(C)c1-c1ccc2c(c1)OC(C(C)(C)C)C(=O)N2` (stereo not given), in that order: 270 nM and 7.9 °C.
Molecule `Cc1noc(C)c1-c1ccc2c(c1)OC(c1ccccc1Cl)C(=O)N2` (stereo not given) displayed a concentration for half-maximal inhibition (IC50) in assay [1] of 490 nM. In assay [2], the ΔTm was found to be 5.1 °C.
Turning to `Cc1noc(C)c1-c1ccc2c(c1)OC(Cc1ccc(Cl)cc1)C(=O)N2` (stereo not given), the half-maximal inhibitory concentration (IC50) in assay [1] was greater than 20000 nM. Also, in assay [2], the shift in melting temperature (ΔTm) came to 2.1 °C.
In the assay on LNCaP [4], `Cc1sc2c(c1C)C(c1ccc(Cl)cc1)=N[C@@H](CC(=O)Nc1ccc(O)cc1)c1nnc(C)n1-2` [BIRABRESIB] showed an IC50 of 111 nM.
For `CSCCC1Oc2cc(-c3c(C)noc3C)ccc2NC1=O` (stereo not given), in assay [1], the IC50 worked out at 530 nM. Besides, the shift in melting temperature (ΔTm) in assay [2] amounted to 6.9 °C.
As for `Cc1noc(C)c1-c1ccc2c(c1)OC(c1cccc(F)c1)C(=O)N2` (stereo not given), the IC50 in assay [1] was 620 nM. Moreover, the ΔTm in assay [2] amounted to 7.5 °C.
As to `Cc1noc(C)c1-c1ccc2c(c1)OC(CC(C)C)C(=O)N2` (stereo not given), the half-inhibitory concentration (IC50) worked out at 380 nM with VCaP; 180 nM in assay [1]; 6500 nM with CWR22R; 540 nM in the assay on LNCaP C4-2B; 570 nM in the assay on LNCaP [3]. The shift in melting temperature (ΔTm) in assay [2] was determined as 9.4 °C.
On to `Cc1noc(C)c1-c1ccc2c(c1)O[C@@H](CC1CC1)C(=O)N2`, for which, in assay [1], the IC50 worked out at 3540 nM. Further, the shift in melting temperature (ΔTm) in assay [2] turned out to be 3.9 °C.
The like results for `Cc1noc(C)c1-c1ccc2c(c1)OC(c1cccc(Cl)c1)C(=O)N2` (stereo not given) were, in that order, 510 nM and 4.8 °C.
Turning to `Cc1noc(C)c1-c1ccc2c(c1)OC(CC1CCC1)C(=O)N2` (stereo not given), in assay [1], inhibition was half-maximal at 200 nM (IC50). Besides, the ΔTm in assay [2] amounted to 8.1 °C.
For `Cc1noc(C)c1-c1ccc2c(c1)O[C@H](CC1CC1)C(=O)N2CC(=O)N(C)C`, in that order: 3640 nM and 6.9 °C.
For the molecule `COC(=O)CN1C(=O)[C@@H](CC2CC2)Oc2cc(-c3c(C)noc3C)ccc21`, the 50% inhibitory concentration (IC50) in assay [1] was 360 nM. In addition, the ΔTm in assay [2] worked out at 8.9 °C.
For `CCCC1Oc2cc(-c3c(C)noc3C)ccc2NC1=O` (stereo not given), in that order: 290 nM and 8.1 °C.
For the molecule `CNC(=O)c1ccc(N2C(=S)N(c3ccc(C#N)c(C(F)(F)F)c3)C(=O)C2(C)C)cc1F` [ENZALUTAMIDE], the IC50 in the assay on VCaP is greater than 30000 nM; in the assay with LNCaP C4-2B it was 20800 nM.
Consider `Cc1noc(C)c1-c1ccc2c(c1)OC(Cc1ccccc1)C(=O)N2` (stereo not given), for which the IC50 in assay [1] was greater than 20000 nM. The ΔTm in assay [2] is 3 °C.
The like results for `Cc1noc(C)c1-c1ccc2c(c1)O[C@H](CC1CC1)C(=O)N2C` were, in that order, 520 nM and 7.7 °C.
In the case of `CCCCC1Oc2cc(-c3c(C)noc3C)ccc2NC1=O` (stereo not given), the IC50 stood at 1140 nM in the assay with VCaP; 200 nM in assay [1]; 4520 nM with CWR22R; 590 nM in the assay on LNCaP C4-2B; 820 nM in the assay on LNCaP [3]. The ΔTm in assay [2] is 7.8 °C.
